{"source": "patent US20050170330A1", "about": "“Angiogensis models using nestin-expressing stem cells to image nascent blood vessels” (AntiCancer, Inc., priority 2003, published 2005)", "key": {"[1]": {"test_system": "ND-GFP vessels growing from transplanted hair follicles", "test": "ND-GFP vibrissa follicle transplantation into wounded nude-mouse skin, angiogenesis model", "type": "in vivo", "details": "nude mice with transplanted ND-GFP vibrissa follicles, compared with carrier-only control group", "description": "For transplantation purposes, vibrissa follicles from ND-GFP transgenic mice is surgically obtained as discussed in Example 8. All follicles are then kept in DMEM/F-12 medium containing B-27 supplement (GIBCO/BRL).\nRecipient nude mice are anesthetized, and a sample of full-thickness skin is folded and two neighboring full-thickness wounds ˜15 mm apart are made with a 2-mm biopsy punch. ND-GFP vibrissa follicles are then transplanted. The incision is closed with nylon sutures (6-0).\nThe mice are divided into an experimental group and a control group. The experimental group received a treatment series comprising vascular endothelial growth factor, a known angiogenesis promoting compound in a pharmaceutically acceptable carrier. The control group of mice receives only the carrier.\nFollowing treatment, samples of subcutis of the transplanted mice are subsequently excised and directly observed by fluorescence microscopy and air-dried or prepared for frozen sections for immunohistochemical staining. […]\nThe mice are divided into an experimental group and a control group. The experimental group received a treatment series comprising vasoinhibin, a known angiogenesis inhibiting compound in a pharmaceutically acceptable carrier. The control group of mice receives only the carrier."}, "[2]": {"test_system": "B16F10 murine melanoma cells", "test": "Cord formation in vitro by B16F10 tumor cells", "type": "cell-based", "description": "B16F10 murine melanoma cells are shown below to mimic endothelial cell behavior and the angiogenic process in vitro and in vivo. Cord formation in vitro by tumor cells is stimulated by hypoxia and vascular endothelial growth factor (VEGF) and inhibited by antibodies against VEGF and the VEGF KDR receptor (VEGF receptor 2)."}}, "data": [{"substance": "vascular endothelial growth factor", "values": [{"measurement": "angiogenic activity based on the amount of GFP activity", "setting": "[1]", "result": "higher degree of angiogenic activity"}, {"measurement": "cord formation in vitro by tumor cells", "setting": "[2]", "result": "stimulated"}]}]}
